For 15 compounds, TGI results are on record in PubChem BioAssay (NCI).

Common to all, as to assay: NCI tumour cell line growth inhibition, 48 h
For test [1], the system named is SK-MEL-5 melanoma.
For test [2], the system named is MDA-N.
Test [3] concerns HCT-15 colon.
Test [4] concerns HOP-92 NSCLC.
The subject of test [5] is CAKI-1 renal.
Test [6] deals with PC-3 prostate.
Test [7] deals with K-562 leukemia.
Test [8] concerns IGROV1 ovarian.
Test [9] concerns TK-10 renal.
The test system of test [10] is SK-MEL-2 melanoma.
Test [11] concerns UACC-62 melanoma.
For test [12], the system named is MDA-MB-231 breast.
Test [13] has as its system HOP-62 NSCLC.
Test [14] deals with CCRF-CEM leukemia.
Test [15] relates to BT-549 breast.
The subject of test [16] is HCT-116 colon.
In test [17] the test system is A549 NSCLC.
The test system of test [18] is HL-60(TB) leukemia.
The subject of test [19] is SF-539 CNS.

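Cells were grown in 96-well plates and exposed to each compound for 48 hours at five concentrations; endpoints were interpolated linearly between bracketing concentrations, or set to the highest concentration if not reached. TGI: concentration producing complete growth inhibition.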

For `CC1NC(=O)c2c(-c3ccccc3)nn(-c3ccccc3)c2NC1=O` (centres undefined), the TGI in test [1], in [2], in [3], in [4], in test [5] and in test [6] was over 100 µM each time. For the same compound, the TGI in test [7], in test [8], in test [9], in test [10], in test [11] and in test [12] was over 100 µM in each case. Besides, the TGI in test [13], in test [14], in test [15], in test [16] and in [17] was over 100 µM each time.

For the compound `COCN1C(=O)[C@@H]2CCCN2C(=O)c2ccc(Cl)cc21`, the TGI in test [2], in test [3], in test [4], in [5], in [6] and in test [7] was over 100 µM each time. The TGI in test [8], in test [9], in test [10], in test [18], in [11] and in test [12] was over 100 µM throughout. Also, the TGI in test [13], in test [15], in [16] and in [17] was over 100 µM throughout.

Take `CCOc1ccc(-n2c(=O)c3nn4c(=O)n(-c5ccc(OCC)cc5)c(=O)c4nn3c2=O)cc1`: the TGI in [1], in test [2], in test [3], in test [4], in [5] and in test [6] was over 100 µM in each case. Further, the TGI in [7], in [8], in test [9], in [10], in test [18] and in [11] was over 100 µM in each case. In addition, the TGI in test [12], in [13], in test [15], in test [16], in [19] and in test [17] was over 100 µM in each case.

For `CC1(C)CCCCC1/C=C/C(CC(O)(C(F)(F)F)C(F)(F)F)=N\Nc1ccc([N+](=O)[O-])cc1[N+](=O)[O-]` (centres undefined), the TGI in test [1] was 1.24 µM; in [2] it was 11.9 µM; in test [3], over 100 µM; in [6], 5.32 µM; in test [7] it was 11.1 µM; in test [8], 15.8 µM. Also, the TGI is 15.5 µM in [9]; 30 µM in test [10]; over 100 µM in test [18]; 13.9 µM in test [11]; 9.62 µM in test [12]; 10.7 µM in [13]. In addition, the TGI in [14] came to 4.91 µM; in test [15], 1.99 µM; in test [16], 6.2 µM; in test [19], 0.973 µM; in test [17], 3.59 µM.

On to `O=C(c1ccccc1)c1ccc(N2C(=O)/C(=C/c3cccc([N+](=O)[O-])c3)N=C2c2ccccc2)c(N2C(=O)/C(=C/c3cccc([N+](=O)[O-])c3)N=C2c2ccccc2)c1`, for which the TGI in [1] was 18.9 µM; in test [2], 86.6 µM; in [3] it was over 100 µM; in test [4], over 100 µM; in [5], over 100 µM; in [6], over 100 µM. The TGI in [7] is over 100 µM; in test [8], over 100 µM; in test [9], over 100 µM; in test [10] it was over 100 µM; in test [18], 15.8 µM; in [11] it was over 100 µM. Besides, the TGI in test [12], in [13], in test [15], in [16], in test [19] and in test [17] was over 100 µM each time.

On to `CNC(=S)N/N=C(\C)c1cc(OC)c(OC)cc1O`, for which the TGI in [1], in test [2], in test [3], in test [5], in test [6] and in [7] was over 100 µM in each case. For the same compound, the TGI in test [8], in test [9], in [10], in test [18], in [11] and in test [12] was over 100 µM each time. The TGI in [13], in test [14], in test [15], in [16], in [19] and in test [17] was over 100 µM throughout.

In the case of `CC(=O)OCc1cc(OC(C)=O)c2cc3c(OC(C)=O)cccc3c(OC(C)=O)c2c1`, the TGI in [1] is 23.7 µM; in test [2], 40.9 µM; in test [3] it was 31.1 µM; in [4], 52.2 µM; in [6], 38.6 µM; in test [7], over 100 µM. Besides, the TGI in test [8] is 40.3 µM; in test [9], 33 µM; in test [18], 47.5 µM; in [11] it was 38.7 µM; in [12], 58.9 µM; in test [13], 39.6 µM. For the same compound, the TGI in test [15] is 49.6 µM; in test [16], over 100 µM; in [17], 30.9 µM.

Consider `CC(C)(C)OC(=O)CCC1NC(=O)[C@@H]2Cc3c([nH]c4ccccc34)C(c3ccccc3)N2C1=O` (some centres undefined), for which the TGI amounted to 37.9 µM in test [1]; 45.7 µM in test [2]; 90.5 µM in test [3]; 67.7 µM in [4]; 75.8 µM in test [5]; 52.9 µM in test [6]. The TGI was over 100 µM in test [7]; 98.7 µM in [8]; over 100 µM in test [9]; 43.2 µM in [10]; 51.2 µM in test [18]; 35.7 µM in test [11]. In addition, the TGI in test [12] was 42.1 µM; in [13], 51.2 µM; in test [15], 64.4 µM; in [16] it was 42.7 µM; in test [17] it was over 100 µM.

In the case of `CN1CCC2(CC1)C(=O)N(NC(N)=O)C(=O)C2c1ccccc1` (centres undefined), the TGI in test [1], in test [2], in test [3], in test [5], in test [6] and in test [7] was over 100 µM each time. For the same compound, the TGI in test [8], in test [9], in test [10], in test [18], in test [11] and in test [12] was over 100 µM throughout. Besides, the TGI in [13], in [14], in test [15], in test [16], in test [19] and in test [17] was over 100 µM in each case.

`CCOC(=O)c1ccc(N(C)Cc2cnc3nc(N)nc(N)c3n2)cc1`: the TGI in test [1] was over 100 µM; in [2] it was over 100 µM; in [3], over 100 µM; in test [5], 45 µM; in [6] it was 88.4 µM; in test [7] it was over 100 µM. The TGI is 86 µM in test [8]; 35.4 µM in test [9]; 80 µM in test [10]; over 100 µM in test [18]; 33.8 µM in [11]; 81.7 µM in test [12]. Moreover, the TGI is 54.7 µM in test [13]; over 100 µM in test [14]; over 100 µM in test [15]; over 100 µM in [16]; 33.9 µM in [19].

Take `C/C(=N/NC(=S)Nc1ccccc1C)c1ccccn1`: the TGI in test [1] was determined as 2.31 µM; in test [2], 20.1 µM; in test [3] it was 18.3 µM; in [4], 17 µM; in test [5], 19.5 µM; in [6], 19.5 µM. In addition, the TGI was determined as 3.4 µM in test [7]; 12.1 µM in test [8]; 4.27 µM in [9]; 12.8 µM in test [10]; 5.99 µM in test [11]; 14.9 µM in test [12]. In addition, the TGI in [13] was determined as 8.99 µM; in test [14] it was 14.4 µM; in test [15] it was 16 µM; in test [16], 12.9 µM; in [19] it was 8.15 µM; in test [17] it was 18.5 µM.

As for `C=CC(C)(C)c1c(OC)oc2ccc(OC)c(C)c2c1=O`, the TGI in test [1], in test [2], in [3], in test [5], in test [6] and in [7] was over 100 µM throughout. Further, the TGI in test [8], in [9], in test [10], in [18], in test [11] and in test [12] was over 100 µM throughout. The TGI in [13], in test [14], in [15], in [16], in test [19] and in [17] was over 100 µM throughout.

With `Nc1ccc(-c2nnc(-c3c(Cl)c(Cl)c(Cl)c(Cl)c3-c3nc4ccc(C(=O)c5ccccc5)cc4[nH]3)o2)cc1`, the TGI in test [1] was 26.4 µM; in test [2], 19 µM; in [3] it was 61 µM; in [4] it was over 100 µM; in test [5] it was over 100 µM; in test [6], 49.9 µM. Moreover, the TGI in test [7] is 31.6 µM; in test [8], over 100 µM; in [9], 77.6 µM; in test [10] it was 88.3 µM; in test [12], 55.4 µM; in [13], 79.9 µM. Moreover, the TGI in [14] is 70.3 µM; in test [15] it was over 100 µM; in test [16], 56.9 µM; in [19] it was 29.3 µM; in test [17], over 100 µM.

Consider `COc1ccccc1NC(=S)NNC(=O)c1cc(-c2ccccc2)nc2ccccc12`, for which the TGI worked out at 19.8 µM in test [1]; 7.78 µM in [2]; 20.2 µM in test [3]; 36.5 µM in test [4]; 39.5 µM in [5]; 49.3 µM in [6]. In addition, the TGI in test [7] was over 100 µM; in test [8] it was 68.5 µM; in [9], over 100 µM; in [10], 31.2 µM; in [11], 23.2 µM; in test [12], 63.7 µM. In addition, the TGI in test [13] is 32 µM; in test [14] it was 6.95 µM; in [15], 63.8 µM; in test [16], 25.6 µM; in test [19], 28.1 µM; in test [17] it was 35 µM.

`CC[C@H](C)[C@H](NC(=O)[C@H](Cc1ccc(O)cc1)NCC(F)(F)F)C(=O)OC(C)(C)C`: the TGI in test [1] is 15.3 µM; in test [2], 17.7 µM; in test [3], 34.2 µM; in test [4], 18.8 µM; in test [5], 15.7 µM; in [6], 14.1 µM. Further, the TGI in test [7] worked out at 27.2 µM; in test [8], 16.4 µM; in test [9] it was 15.4 µM; in test [10], 13.9 µM; in test [11], 12.9 µM; in test [12] it was 15.5 µM. Besides, the TGI in test [13] is 20.5 µM; in test [15], 34.7 µM; in test [16], 16.6 µM; in [19] it was 21 µM; in test [17], 13 µM.
